# According to patent publication US20250302784A1, “MYOBLAST PROLIFERATION PROMOTER AND MYOBLAST-PROLIFERATION PROMOTING COMPOSITION, AND MUSCLE ATROPHY INHIBITOR AND MUSCLE-ATROPHY INHIBITING COMPOSITION” (MARUZEN PHARMACEUTICALS CO., LTD., priority 2022, published 2025):
# Experiments:
# [1] = tested on: skeletal muscle-derived myoblasts (C2C12) of mice; assay: Test for myoblast-proliferation promotion effect (MTT assay); type: cell-based; details: for Myoblast proliferation promotion rate (%): cultured 2 days, MTT, rate = A/B×100 vs cells without test sample
# Method: A test on a myoblast proliferation effect of the compound represented by Structural Formula (1) (using the compound available from Sigma-Aldrich) was performed according to the following testing method.
# After culturing skeletal muscle-derived myoblasts (C2C12) of mice in a Dulbecco's modified eagle medium (DMEM) containing 10% FBS, the cells were collected by trypsinization. The collected cells were diluted with a 5% FBS-containing DMEM so that a concentration of the cells was to be 2.0×10^4 cells/mL. Then, the dilution was seeded by 100 μL per well in a 96-well plate, followed by culturing for 6 hours. After completing the culture, a test sample dissolved in a 5% FBS-containing DMEM (see Table 1 below for the final concentration) was added by 100 μL per well, followed by culturing for 2 days. Even in the case where the test sample was not added, culturing was performed in the same manner except that the test sample was not added.
# The myoblast-proliferation promotion effect was measured using an MTT assay. After completing the culture, the medium was removed, and MTT dissolved in a PBS buffer solution (PBS(−)) at a final concentration of 0.4 mg/mL was added by 100 μL per well. After culturing for 2 hours, blue formazan generated within the cells was extracted with 100 μL of 2-propanol. After the extraction, absorbance at a wavelength of 570 nm was measured. In addition, absorbance at a wavelength of 650 nm was measured as turbidity. The difference between the absorbance at the wavelength of 570 nm and the absorbance at the wavelength of 650 nm was used to determine an amount of blue formazan generated.
# The myoblast proliferation promotion rate (%) was calculated from the obtained results according to the following equation.
# Myoblast proliferation promotion rate (%)=A/B×100
# In the equation above, A and B are as follows. • A: An amount of blue formazan generated in the cells to which the test sample was added. • B: An amount of blue formazan generated in the cells to which the test sample was not added.
# [2] = tested on: rat model of disuse muscle atrophy; assay: Test for muscle atrophy inhibition effect in rat model of disuse muscle atrophy (hindlimb suspension); type: in vivo, Wistar rats
# Method: Whether muscle atrophy was inhibited by orally administering the compound represented by Structural Formula (1) (using the compound available from Cayman Chemical) to a rat model of disuse muscle atrophy for 14 days was tested according to the following testing method.
# Seven week-old male Wistar (Crlj: WI) rats were acquired from Charles River Laboratories Japan, Inc., and were bred in the environment where a temperature was 23±3° C. and the humidity was 55±15% and in a cycle of 12 hours in light and 12 hours in dark. The rats were acclimated for one week before use, and were allowed to freely intake a solid feed (CRF-1, available from Oriental Yeast Co., Ltd.) and tap water.
# After one week of acclimation, the Wistar rats were randomly divided into groups of eight. The rats were bred for 14 days in the state where the tail of each rat was held with clips so that the rat's hind legs were raised above the floor according to the method of Morey-Holton E R et al. During the breeding period, the rats were allowed to move around within a case with their forelimbs, and were allowed to freely intake water and a feed.
# The test groups were (1) a normal group (without hindlimb suspension), (2) a control group (hindlimb suspension+0 mg/kg of the compound represented by Structural Formula (1)), (3) a group with the compound represented by Structural Formula (1) (hindlimb suspension+125 mg/kg of the compound represented by Structural Formula (1)).
# The compound represented by Structural Formula (1) was dissolved in water, and the solution was administered by oral gavage every day for 14 days. Water was administered to the control group.
# At the end of the test, the rats were euthanized by exsanguination under isoflurane anesthesia. Then, the soleus muscles were removed and the muscle weight was measured. In Table 2, the soleus muscle weight is an average value.
compound,measurement,setting,value
"O=C(O)CCc1ccc(O)c(O)c1 [3,4-dihydroxyhydrocinnamic acid]",Myoblast-proliferation promotion effect (in words),[1]; conclusion from Table 1,excellent myoblast-proliferation promotion effect
same,Myoblast proliferation promotion rate (%),[1]; test sample 25 μmol/L,106.4%
same,Myoblast proliferation promotion rate (%),[1]; test sample 100 μmol/L,108.0%
same,Soleus muscle weight,"[2]; hindlimb-suspended male Wistar rats, 125 mg/kg oral gavage daily for 14 days, average value (normal group 359.1, control group 139.3)",151.3
same,Soleus muscle weight compared to the control group (in words),"[2]; hindlimb-suspended rats, 125 mg/kg oral, 14 days",increased compared to the control group
same,Muscle atrophy inhibition (in words),"[2]; rat model of disuse muscle atrophy, 125 mg/kg oral, 14 days",inhibited muscle atrophy
